Test results from PubChem BioAssay (NCI).
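Results reflect a 48-hour exposure of cells in 96-well plates to compound at five concentrations. GI50: concentration for 50% inhibition of growth. TGI: concentration producing complete growth inhibition.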

Legend:
Assay in all cases: growth of human tumour cells (NCI), 48 h
[1] = system: HCC-2998 colon
[2] = system: UACC-257 melanoma
[3] = system: TK-10 renal
[4] = system: SW-620 colon
[5] = system: NCI-H522 lung
[6] = system: NCI-H226 lung
[7] = system: HL-60(TB) leukemia
[8] = system: K-562 leukemia
[9] = system: OVCAR-4 ovarian
[10] = system: COLO 205 colon
[11] = system: SF-539 CNS
[12] = system: NCI/ADR-RES ovarian
[13] = system: SK-MEL-5 melanoma
[14] = system: DU-145 prostate
[15] = system: T-47D breast

Row | Structure (SMILES) | TGI [1] | TGI [2] | TGI [3] | TGI [4] | TGI [5] | TGI [6] | TGI [7] | TGI [8] | TGI [9] | TGI [10] | TGI [11] | GI50 [6] | TGI [12] | TGI [13] | TGI [14] | TGI [15] | GI50 [2] | GI50 [3] | GI50 [11] | GI50 [14]
1 | CN(C)C(=S)Nc1nnc(NC23CC4CC(CC(C4)C2)C3)s1 | 35.5 µM | 32.5 µM | > 100 µM | 38.3 µM | 34.9 µM | 38.4 µM | 31.9 µM | > 100 µM | 32.4 µM | 44.1 µM |  |  |  |  |  |  |  |  |  | 
2 | CN(C)c1cccc(-c2cc(=O)c3ccccc3[nH]2)c1 | > 100 µM | > 100 µM | > 100 µM | > 100 µM | 57.6 µM | 66.9 µM | 74.6 µM |  |  | > 100 µM | > 100 µM | 29.4 µM |  |  |  |  |  |  |  | 
3 | C=C1C(=O)OC2/C=C(\C)CC/C=C(/C)CC(OC(=O)/C(=C/CO)CO)C12 (configuration not stated) | 41.3 µM | 36.3 µM | 34.5 µM | 63.1 µM | 39.9 µM |  | 20.7 µM | > 100 µM | > 100 µM | 33 µM | 66.3 µM |  | > 100 µM | 31.2 µM | 33.1 µM |  |  |  |  | 
4 | Nn1c(CNc2ccc(-c3nnc(Nc4ccc(Cl)cc4)n3N)cc2)nnc1Nc1ccc(Cl)cc1 | > 100 µM | > 100 µM | > 100 µM | > 100 µM | > 100 µM | > 100 µM |  | > 100 µM | > 100 µM | > 100 µM |  |  | > 100 µM | > 100 µM | > 100 µM |  |  |  |  | 
5 | CSCCC(NC(=O)C(Cc1ccccc1)NC(=O)CNC(=O)CNC(=O)C(N)Cc1ccc(O)cc1)C(=O)O (configuration not stated) | > 100 µM | > 100 µM |  | > 100 µM | > 100 µM |  | > 100 µM | > 100 µM | > 100 µM | > 100 µM | > 100 µM |  | > 100 µM | > 100 µM |  |  |  |  |  | 
6 | O=C(ON=c1c2ccccc2ccc2ccccc12)c1cc([N+](=O)[O-])cc([N+](=O)[O-])c1 | > 100 µM | > 100 µM | > 100 µM | > 100 µM |  | > 100 µM | > 100 µM | > 100 µM | > 100 µM | > 100 µM | > 100 µM |  | > 100 µM | > 100 µM | > 100 µM |  |  |  |  | 
7 | C#CCNC(=O)CCC(N)C(=O)O (configuration not stated) | > 100 µM | > 100 µM |  | > 100 µM | > 100 µM | > 100 µM | > 100 µM | > 100 µM | > 100 µM | > 100 µM | > 100 µM |  | > 100 µM | > 100 µM |  |  |  |  |  | 
8 | Cc1cccc2c1Oc1cc(Cl)ccc1C2NC(=O)CCN1CCCCC1 (configuration not stated) | 28.3 µM | 30.5 µM | 30 µM | 34.9 µM | 31.3 µM |  | 38.3 µM | 32 µM | 30.9 µM | 34.6 µM | 31.9 µM |  | 32 µM | 30 µM |  | 29.8 µM |  |  |  | 
9 | OC1CN(OC/C=C/c2ccccc2)CC(O)C1O (configuration not stated) | > 100 µM | > 100 µM | > 100 µM | > 100 µM |  | > 100 µM | > 100 µM | > 100 µM | > 100 µM | > 100 µM | > 100 µM |  |  | > 100 µM |  |  |  |  |  | 
10 | CSC1=N/C(=C\c2cccs2)C(=O)N1CN1CCOCC1 |  |  | > 100 µM | > 100 µM | > 100 µM | > 100 µM | > 100 µM | > 100 µM | 86.7 µM | > 100 µM |  |  | 90.5 µM | > 100 µM | > 100 µM |  |  |  |  | 
11 | CCCOc1ccc(/C(Cl)=C(\C=O)c2ccc(OC)c(OC)c2)cc1OCCC | 15.4 µM | > 100 µM | 94.3 µM | > 100 µM | 6.12 µM | 32.4 µM | 20.9 µM | > 100 µM | > 100 µM | 14.6 µM | 55.1 µM |  |  | 46.3 µM |  |  |  |  |  | 
12 | O=C1/C(=C/c2ccc(O)cc2)NC(=S)N1CN1CCCCC1 |  |  | > 100 µM | > 100 µM | > 100 µM | > 100 µM | > 100 µM | > 100 µM | > 100 µM | 56.4 µM |  |  | > 100 µM | > 100 µM | > 100 µM |  |  |  |  | 
13 | NCCCNCCSSCc1ccccc1CSSCCNCCCN | > 100 µM | > 100 µM | > 100 µM | > 100 µM | 26.7 µM |  | 29.8 µM | > 100 µM | > 100 µM | > 100 µM | > 100 µM |  |  | > 100 µM |  |  |  |  |  | 
14 | O=C(Nc1ccc(Cl)cc1)c1cc(S(=O)(=O)Nc2n[nH]c(=O)[nH]2)c(SSc2cc(Cl)c(C(=O)Nc3ccc(Cl)cc3)cc2S(=O)(=O)Nc2n[nH]c(=O)[nH]2)cc1Cl | > 100 µM | > 100 µM | > 100 µM | > 100 µM | > 100 µM | > 100 µM | > 100 µM | > 100 µM | > 100 µM | > 100 µM |  |  | > 100 µM | > 100 µM |  |  |  |  |  | 
15 | O=C1C(NS(=O)(=O)c2ccccc2)=C(n2cnc3ccccc32)C(=O)c2ccccc21 | > 100 µM | > 100 µM | > 100 µM | > 100 µM | 53.7 µM | > 100 µM | > 100 µM | > 100 µM | > 100 µM | > 100 µM | > 100 µM |  | > 100 µM | > 100 µM | > 100 µM |  |  |  |  | 
16 | COC1/C=C\C=C(/C)C(=O)NC2=CC(=O)C=C(C2=O)C(OC)C(C)CC(OC)C(OC)C(C)/C=C(/C)C1OC(N)=O (configuration not stated) | 15.9 µM | 19.6 µM |  | 2.8 µM | 1.1 µM | 37 µM | 0.554 µM | 1.44 µM | 21.8 µM | 11.4 µM | 20.4 µM |  | 21.8 µM | 20.9 µM |  |  |  |  |  | 
17 | CN(C)c1nc(N(C)C)nc(N(C)CN(C)c2ccccc2)n1 | > 100 µM | > 100 µM | > 100 µM |  | > 100 µM | > 100 µM | > 100 µM | > 100 µM | > 100 µM |  | > 100 µM |  |  | > 100 µM |  |  |  |  |  | 
18 | COc1ccc2c(=O)c([Se]c3coc4cc(OC)ccc4c3=O)coc2c1 | > 100 µM | > 100 µM | > 100 µM | > 100 µM | > 100 µM | > 100 µM | > 100 µM | > 100 µM | > 100 µM | > 100 µM | > 100 µM |  |  | > 100 µM |  |  |  |  |  | 
19 | O=C(NC(=O)c1cn(CCN2CCNCC2)c(=O)[nH]c1=O)OCc1ccccc1 |  |  |  | > 100 µM | > 100 µM | > 100 µM | > 100 µM | > 100 µM | > 100 µM | > 100 µM | > 100 µM |  |  | > 100 µM |  |  |  |  |  | 
20 | COc1ccc(/C=C2/C(=O)N(C(=O)c3ccccc3O)N=C2C)cc1OC | > 100 µM | > 100 µM | > 100 µM | > 100 µM | > 100 µM | 40.5 µM | > 33.6 µM | > 100 µM | > 100 µM | > 95.1 µM |  |  | > 100 µM | 24.6 µM | > 100 µM |  |  |  |  | 
21 | COc1cc2cc3c4c(cc(OC)c(OC)c4c2cc1OC)CCN3C(=O)CCCC(=O)O | > 100 µM | > 100 µM | > 100 µM | > 100 µM | > 100 µM | > 100 µM | > 100 µM | > 100 µM | > 100 µM | > 100 µM | > 100 µM |  |  | > 100 µM |  |  |  |  |  | 
22 | COCCO | > 100 µM | > 100 µM |  | > 100 µM | > 100 µM | > 100 µM | > 100 µM | > 100 µM | > 100 µM | > 100 µM | > 100 µM |  | > 100 µM | > 100 µM |  |  |  |  |  | 
23 | CC(/C=C/c1ncccc1OCCCCCC(=O)O)=N\NC1=NCCN1 | > 100 µM |  | > 100 µM | > 100 µM | > 100 µM | > 100 µM | > 100 µM | > 100 µM | > 100 µM | > 100 µM | > 100 µM |  |  |  |  |  |  |  |  | 
24 | CSc1ccc2c(c1)c(CCN)c(C)n2Cc1ccc(Cl)c(Cl)c1 |  | 3.74 µM | 2.95 µM |  |  |  |  |  |  |  | 3.04 µM |  |  |  | 3.21 µM |  | 2.03 µM | 1.51 µM | 1.6 µM | 1.73 µM
25 | O=C(O)CC(NC(=O)C(F)(F)F)C(=O)NC1Cc2ccccc2OC1=O (configuration not stated) | > 100 µM | > 100 µM | > 100 µM | > 100 µM | > 100 µM | > 100 µM |  | > 100 µM |  |  | > 100 µM |  | > 100 µM | > 100 µM | > 100 µM |  |  |  |  | 
26 | O=c1[nH]c(=S)[nH]c2c1sc(=S)n2-c1ccccc1 | > 100 µM | > 100 µM | > 100 µM | > 100 µM | > 100 µM | > 100 µM | > 100 µM | > 100 µM | > 100 µM | > 100 µM | > 100 µM |  |  | > 100 µM |  |  |  |  |  | 
27 | COC1/C=C/C(C)C(OC)CC(O)/C=C/C(C)C(C(C)C(OC)C(C)CCC(=O)C(C)C(C/C=C/N(C)C=O)OC)OC(=O)/C=C/C=C(\C)CC(OC)C(OC)C2=CC(=O)O[C@@H](C(C)C(OC)C1)[C@H]2O (some centres not stated) | 0.0518 µM | 0.105 µM | 0.124 µM |  | 0.0722 µM | 0.0714 µM | > 25 µM |  | 1.41 µM |  |  |  | 0.145 µM | 0.0763 µM |  | 0.151 µM |  |  |  | 
28 | Cc1ccc2nc3c(C(=O)NCCN(C)C)cccc3cc2c1 | 14.8 µM | 4.56 µM |  | 5.45 µM |  | 3.6 µM | 3.72 µM | 7.83 µM |  | 3.25 µM | 10.1 µM |  | 4.25 µM | 3.41 µM |  |  |  |  |  | 
